Measurements taken from patent US12473304B2, “Heterocyclic PAD4 inhibitors” (BRISTOL-MYERS SQUIBB COMPANY, priority 2020, dated 2025).
pIC50: −log10 of the molar value.

Biological target: human PAD4 (hPAD4) (Homo sapiens (Human), UniProt Q9UM07)
Assay: RFMS Human PAD4 Functional Assay 1
Assay type: biochemical
Details: RFMS assay 1; 5 nM hPAD4, 250 μM BAEE substrate, 50 μM calcium, 37° C.
Procedure, shortened: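 Recombinant hPAD4 (5 nM) was preincubated with compound (top 50 μM, 0.5% DMSO) for 30 min at 37 °C, then reacted with 250 μM BAEE for 90 min at 37 °C in pH 7.5 HEPES buffer with 50 μM calcium and 5 μM TPEN. Product was derivatized with phenyl glyoxal and quantified by RapidFire MS.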

Chain of human PAD4 (hPAD4) (Q9UM07 whole entry): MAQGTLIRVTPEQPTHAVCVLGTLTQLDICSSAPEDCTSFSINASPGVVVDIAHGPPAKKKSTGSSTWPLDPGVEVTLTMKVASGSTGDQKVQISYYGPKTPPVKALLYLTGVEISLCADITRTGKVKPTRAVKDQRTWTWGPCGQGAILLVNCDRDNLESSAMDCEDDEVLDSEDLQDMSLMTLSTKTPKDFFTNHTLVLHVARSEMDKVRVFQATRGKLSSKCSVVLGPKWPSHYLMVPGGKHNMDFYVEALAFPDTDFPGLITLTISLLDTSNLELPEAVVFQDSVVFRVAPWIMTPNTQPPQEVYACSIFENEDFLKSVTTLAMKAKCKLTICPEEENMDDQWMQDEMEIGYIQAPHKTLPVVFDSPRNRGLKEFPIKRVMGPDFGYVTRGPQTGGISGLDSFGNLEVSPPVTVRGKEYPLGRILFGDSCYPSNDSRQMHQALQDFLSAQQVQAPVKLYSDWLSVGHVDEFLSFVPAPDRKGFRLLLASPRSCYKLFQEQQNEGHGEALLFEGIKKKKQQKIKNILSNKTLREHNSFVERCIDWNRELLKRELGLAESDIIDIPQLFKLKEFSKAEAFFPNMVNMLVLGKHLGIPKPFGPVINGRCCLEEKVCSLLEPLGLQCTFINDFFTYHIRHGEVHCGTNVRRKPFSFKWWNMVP

Row | pIC50 | SMILES
1 | 7.15 | Cc1c(-c2cc3cccc(OC[C@@H]4CCC(=O)N4)c3n2CC2CC2)nn2cc(C(=O)N3C[C@H](N)C[C@@H](F)C3)ccc12 [Example 585, (S)-5-(((2-(6-((3R,5R)-3-Amino-5-fluoropiperidine-1-carbonyl)-3-methylpyrazolo[1,5-a]pyridin-2-yl)-1-(cyclopropylmethyl)-1H-indol-7-yl)oxy)methyl)pyrrolidin-2-one]
2 | 6.82 | Cc1c(-c2cc3cccc(OC[C@H]4CCC(=O)N4)c3n2CC2CC2)nn2cc(C(=O)N3CCC[C@@H](N)C3)ccc12 [Example 586, (R)-5-(((2-(6-((R)-3-Aminopiperidine-1-carbonyl)-3-methylpyrazolo[1,5-a]pyridin-2-yl)-1-(cyclopropylmethyl)-1H-indol-7-yl)oxy)methyl)pyrrolidin-2-one]
3 | 5.95 | Cc1c(-c2cc3cccc(OC[C@H]4CCC(=O)N4)c3n2CC2CC2)nn2cc(C(=O)N3C[C@H](N)C[C@@H](F)C3)ccc12 [Example 587, (R)-5-(((2-(6-((3R,5R)-3-Amino-5-fluoropiperidine-1-carbonyl)-3-methylpyrazolo[1,5-a]pyridin-2-yl)-1-(cyclopropylmethyl)-1H-indol-7-yl)oxy)methyl)pyrrolidin-2-one]
4 | 7.52 | COc1cc(C(=O)N2C[C@H](N)C[C@@H](F)C2)cn2nc(-c3cc4ccnc(OCCn5cncn5)c4n3CC3CC3)c(C)c12 [Example 592, (2-(7-(2-(1H-1,2,4-Triazol-1-yl)ethoxy)-1-(cyclopropylmethyl)-1H-pyrrolo[2,3-c]pyridin-2-yl)-4-methoxy-3-methylpyrazolo[1,5-a]pyridin-6-yl)((3R,5R)-3-amino-5-fluoropiperidin-1-yl)methanone]
5 | 6.96 | COc1cc(C(=O)N2CCC[C@@H](N)C2)cn2nc(-c3cc4ccnc(OCCn5cncn5)c4n3CC3CC3)c(C)c12 [Example 593, (R)-(2-(7-(2-(1H-1,2,4-Triazol-1-yl)ethoxy)-1-(cyclopropylmethyl)-1H-pyrrolo[2,3-c]pyridin-2-yl)-4-methoxy-3-methylpyrazolo[1,5-a]pyridin-6-yl)(3-aminopiperidin-1-yl)methanone]
6 | 6.41 | COc1cc(C(=O)N2C[C@H](N)C[C@@H](F)C2)cn2nc(-c3cc4ccnc(OCCn5ccnc5C)c4n3CC3CC3)c(C)c12 [Example 594, ((3R,5R)-3-Amino-5-fluoropiperidin-1-yl)(2-(1-(cyclopropylmethyl)-7-(2-(2-methyl-1H-imidazol-1-yl)ethoxy)-1H-pyrrolo[2,3-c]pyridin-2-yl)-4-methoxy-3-methylpyrazolo[1,5-a]pyridin-6-yl)methanone]
7 | 5.89 | COc1cc(C(=O)N2CCC[C@@H](N)C2)cn2nc(-c3cc4ccnc(OCCn5ccnc5C)c4n3CC3CC3)c(C)c12 [Example 595, (R)-(3-Aminopiperidin-1-yl)(2-(1-(cyclopropylmethyl)-7-(2-(2-methyl-1H-imidazol-1-yl)ethoxy)-1H-pyrrolo[2,3-c]pyridin-2-yl)-4-methoxy-3-methylpyrazolo[1,5-a]pyridin-6-yl)methanone]
8 | 5.13 | COc1cc(C(=O)N2CCC[C@@H](N)C2)cn2nc(-c3cc4ccnc(OCC5COC5)c4n3CC3CC3)c(C)c12 [Example 596, (R)-(3-Aminopiperidin-1-yl)(2-(1-(cyclopropylmethyl)-7-(oxetan-3-ylmethoxy)-1H-pyrrolo[2,3-c]pyridin-2-yl)-4-methoxy-3-methylpyrazolo[1,5-a]pyridin-6-yl)methanone]
9 | 8.00 | COc1cc(C(=O)N2C[C@H](N)C[C@@H](F)C2)cn2nc(-c3cc4ccnc(OCCn5ccnc5)c4n3CC3CC3)c(C)c12 [Example 597, (2-(7-(2-(1H-Imidazol-1-yl)ethoxy)-1-(cyclopropylmethyl)-1H-pyrrolo[2,3-c]pyridin-2-yl)-4-methoxy-3-methylpyrazolo[1,5-a]pyridin-6-yl)((3R,5R)-3-amino-5-fluoropiperidin-1-yl)methanone]
10 | 7.70 | COc1cc(C(=O)N2CCC[C@@H](N)C2)cn2nc(-c3cc4ccnc(OCCn5ccnc5)c4n3CC3CC3)c(C)c12 [Example 598, (R)-(2-(7-(2-(1H-Imidazol-1-yl)ethoxy)-1-(cyclopropylmethyl)-1H-pyrrolo[2,3-c]pyridin-2-yl)-4-methoxy-3-methylpyrazolo[1,5-a]pyridin-6-yl)(3-aminopiperidin-1-yl)methanone]
11 | 7.70 | COc1cc(C(=O)N2CCC[C@@H](N)C2)cn2nc(-c3cc4ccnc(OCCn5cnnc5)c4n3CC3CC3)c(C)c12 [Example 599, (R)-(2-(7-(2-(4H-1,2,4-Triazol-4-yl)ethoxy)-1-(cyclopropylmethyl)-1H-pyrrolo[2,3-c]pyridin-2-yl)-4-methoxy-3-methylpyrazolo[1,5-a]pyridin-6-yl)(3-aminopiperidin-1-yl)methanone]
12 | 7.52 | COc1cc(C(=O)N2C[C@H](N)C[C@@H](F)C2)cn2nc(-c3cc4ccnc(OCCn5cnnc5)c4n3CC3CC3)c(C)c12 [Example 600, (2-(7-(2-(4H-1,2,4-Triazol-4-yl)ethoxy)-1-(cyclopropylmethyl)-1H-pyrrolo[2,3-c]pyridin-2-yl)-4-methoxy-3-methylpyrazolo[1,5-a]pyridin-6-yl)((3R,5R)-3-amino-5-fluoropiperidin-1-yl)methanone]
13 | 7.52 | COc1cc(C(=O)N2CC3CCC2[C@@H]3N)cn2nc(-c3cc4ccnc(OC[C@H]5CCC(=O)N5)c4n3CC3CC3)c(C)c12 (stereo partly drawn) [Example 604, (5R)-5-(((2-(6-((7R)-7-Amino-2-azabicyclo[2.2.1]heptane-2-carbonyl)-4-methoxy-3-methylpyrazolo[1,5-a]pyridin-2-yl)-1-(cyclopropylmethyl)-1H-pyrrolo[2,3-c]pyridin-7-yl)oxy)methyl)pyrrolidin-2-one]
14 | 7.40 | Cc1c(-c2cc3ccnc(OCCn4cnnc4)c3n2CC2CC2)nn2cc(C(=O)N3CCC[C@@H](N)C3)ccc12 [Example 609, (R)-(2-(7-(2-(4H-1,2,4-Triazol-4-yl)ethoxy)-1-(cyclopropylmethyl)-1H-pyrrolo[2,3-c]pyridin-2-yl)-3-methylpyrazolo[1,5-a]pyridin-6-yl)(3-aminopiperidin-1-yl)methanone]
15 | 6.37 | Cc1c(-c2cc3ccnc(OCCn4cncn4)c3n2CC2CC2)nn2cc(C(=O)N3C[C@H](N)C[C@@H](F)C3)ccc12 [Example 610, (2-(7-(2-(1H-1,2,4-Triazol-1-yl)ethoxy)-1-(cyclopropylmethyl)-1H-pyrrolo[2,3-c]pyridin-2-yl)-3-methylpyrazolo[1,5-a]pyridin-6-yl)((3R,5R)-3-amino-5-fluoropiperidin-1-yl)methanone]
16 | 5.81 | Cc1c(-c2cc3ccnc(OCCn4ccnc4C)c3n2CC2CC2)nn2cc(C(=O)N3C[C@H](N)C[C@@H](F)C3)ccc12 [Example 611, ((3R,5R)-3-Amino-5-fluoropiperidin-1-yl)(2-(1-(cyclopropylmethyl)-7-(2-(2-methyl-1H-imidazol-1-yl)ethoxy)-1H-pyrrolo[2,3-c]pyridin-2-yl)-3-methylpyrazolo[1,5-a]pyridin-6-yl)methanone]
17 | 5.53 | Cc1c(-c2cc3ccnc(OCCn4ccnc4C)c3n2CC2CC2)nn2cc(C(=O)N3CCC[C@@H](N)C3)ccc12 [Example 612, (R)-(3-Aminopiperidin-1-yl)(2-(1-(cyclopropylmethyl)-7-(2-(2-methyl-1H-imidazol-1-yl)ethoxy)-1H-pyrrolo[2,3-c]pyridin-2-yl)-3-methylpyrazolo[1,5-a]pyridin-6-yl)methanone]
18 | 6.60 | Cc1c(-c2cc3ccnc(OCCn4cnnc4)c3n2CC2CC2)nn2cc(C(=O)N3C[C@H](N)C[C@@H](F)C3)ccc12 [Example 613, (2-(7-(2-(4H-1,2,4-Triazol-4-yl)ethoxy)-1-(cyclopropylmethyl)-1H-pyrrolo[2,3-c]pyridin-2-yl)-3-methylpyrazolo[1,5-a]pyridin-6-yl)((3R,5R)-3-amino-5-fluoropiperidin-1-yl)methanone]
19 | 7.70 | Cc1c(-c2cc3ccnc(OCCn4ccnc4)c3n2CC2CC2)nn2cc(C(=O)N3C[C@H](N)C[C@@H](F)C3)ccc12 [Example 616, (2-(7-(2-(1H-Imidazol-1-yl)ethoxy)-1-(cyclopropylmethyl)-1H-pyrrolo[2,3-c]pyridin-2-yl)-3-methylpyrazolo[1,5-a]pyridin-6-yl)((3R,5R)-3-amino-5-fluoropiperidin-1-yl)methanone]
20 | 8.00 | Cc1c(-c2cc3ccnc(OCCn4ccnc4)c3n2CC2CC2)nn2cc(C(=O)N3CCC[C@@H](N)C3)ccc12 [Example 617, (R)-(2-(7-(2-(1H-lmidazol-1-yl)ethoxy)-1-(cyclopropylmethyl)-1H-pyrrolo[2,3-c]pyridin-2-yl)-3-methylpyrazolo[1,5-a]pyridin-6-yl)(3-aminopiperidin-1-yl)methanone]
21 | 6.35 | COc1cc(C(=O)N2C[C@H](N)C[C@@H](F)C2)cn2nc(-c3cc4ccnc(OCCn5cnnc5)c4n3C)c(C)c12 [Example 620, (2-(7-(2-(4H-1,2,4-Triazol-4-yl)ethoxy)-1-methyl-1H-pyrrolo[2,3-c]pyridin-2-yl)-4-methoxy-3-methylpyrazolo[1,5-a]pyridin-6-yl)((3R,5R)-3-amino-5-fluoropiperidin-1-yl)methanone]
22 | 6.85 | COc1cc(C(=O)N2C[C@H](N)C[C@@H](F)C2)cn2nc(-c3sc4cccc(-c5cnn(CCO)c5)c4c3CC3CC3)c(C)c12 [Example 621, ((3R,5R)-3-Amino-5-fluoropiperidin-1-yl)(2-(3-(cyclopropylmethyl)-4-(1-(2-hydroxyethyl)-1H-pyrazol-4-yl)benzo[b]thiophen-2-yl)-4-methoxy-3-methylpyrazolo[1,5-a]pyridin-6-yl)methanone]
